In one series the test system is NIH-3T3. The series is described as follows: MTT cell viability assay, NIH-3T3. The format is cell-based, murine. The conditions noted are these: 72 h. How it is done: (§1) 3-(4,5-dimethythiazol-2-yl)-2,5-diphenyl-2-H-tetrazolium bromide (MTT) colorimetric assay was employed to investigate cell viability. Cells were seeded into 96-well plates with 2-5× 10^3 cells per well (5× 10^3 cells/well for LNCaP, 22RV1, NIH-3T3, GES-1, Chang, […]
(§2) NCI-H1299, U2OS, U87) for 1 day incubation at 37 °C. Then, the cells were treated with various concentrations of compounds (22.86 nM - 50 μM) and incubated for 72 h. Then, 10 μl MTT (5 mg/ml) was added into each well and incubated for 4 h. Afterwards, 100 μl of triplex 10% SDS-0.1% HCl-phosophate-buffered saline (PBS) solutions was added into each well and incubated for overnight. The absorbance at 570 nm was measured (Eon, Bioteck, Winooski, VT). […]

The subject of series [1] is PSA, CDC20, CENPF, MKI67 mRNA in LNCaP cells. In words: Quantitative PCR in LNCaP cells. The format is cell-based. The conditions noted are these: for mRNA expression of PSA: LNCaP, 0.1, 1 μM, 5 nM DHT; for mRNA expressions of CDC20, CENPF and MKI67: LNCaP, compared with DHT. Here is the method: Quantitative PCR (qPCR) for PSA, CDC20, CENPF, MKI67
LNCaP cells were cultured in medium containing 5% CSS in six -well plates and treated […]
where 5 nM DHT and DMSO were separately used in parallel as controls. After 48 h incubation, EZ-10 DNAaway RNA Mini -Preps Kit (Sangon Biotech) and Hifair® Ⅲ 1st Strand cDNA Synthesis SuperMix for qPCR (YEASEN) were employed for mRNA extraction and cDNA preparation, respectively. Then, the PCR SYBR Green Master Mix (YEASEN) was employed to amplify cDNA using the prime pairs in Table S5 . […]

For series [2], the system named is secreted PSA from LNCaP cells. The series is described as follows: Secreted prostate-specific antigen (PSA) assay. Type of series: cell-based. The conditions noted are these: for IC50: Homo sapiens, read-out: IC50, PSA levels secreted in the cellular media. Here is the method: Secreted Prostate-Specific Antigen (PSA) Assay
After the AR transcriptional activity assay was completed, 300 μl of the media
supernatant including the secreted PSA was measured using […]® 2000 XPi
Immunoassay System (Siemens Ltd., Erlangen, Germany). […]

For series [3], the system named is U2OS, MCF-7, HepG2, HL60, H1299, A549, SW480, U87, Hela cell lines. In words: MTT cell viability assay, various human cancer cell lines. Type of series: cell-based. The note with it: concentration as high as 50 μM; Enz except U2OS, M17-B15 except A549. How it is done:
as §1, §2

For another series, the system named is LNCaP cells. The series is described as follows: Clonogenic (colony forming) assay, LNCaP. The format is cell-based. The note with it: 2 and 20 μM, 16-18 days. How it is done: 1.5× 10^3 cells/well of LNCaP or 22RV1 were seeded into a 6-well plate. After 1 day
incubation, the medium of each well was removed and washed thrice using PBS. […]

In the next series the target is T1, MR (Homo sapiens, UniProt P08235).
T1 construct: host or cells: HEK293T
T1 sequence (P08235 1-984): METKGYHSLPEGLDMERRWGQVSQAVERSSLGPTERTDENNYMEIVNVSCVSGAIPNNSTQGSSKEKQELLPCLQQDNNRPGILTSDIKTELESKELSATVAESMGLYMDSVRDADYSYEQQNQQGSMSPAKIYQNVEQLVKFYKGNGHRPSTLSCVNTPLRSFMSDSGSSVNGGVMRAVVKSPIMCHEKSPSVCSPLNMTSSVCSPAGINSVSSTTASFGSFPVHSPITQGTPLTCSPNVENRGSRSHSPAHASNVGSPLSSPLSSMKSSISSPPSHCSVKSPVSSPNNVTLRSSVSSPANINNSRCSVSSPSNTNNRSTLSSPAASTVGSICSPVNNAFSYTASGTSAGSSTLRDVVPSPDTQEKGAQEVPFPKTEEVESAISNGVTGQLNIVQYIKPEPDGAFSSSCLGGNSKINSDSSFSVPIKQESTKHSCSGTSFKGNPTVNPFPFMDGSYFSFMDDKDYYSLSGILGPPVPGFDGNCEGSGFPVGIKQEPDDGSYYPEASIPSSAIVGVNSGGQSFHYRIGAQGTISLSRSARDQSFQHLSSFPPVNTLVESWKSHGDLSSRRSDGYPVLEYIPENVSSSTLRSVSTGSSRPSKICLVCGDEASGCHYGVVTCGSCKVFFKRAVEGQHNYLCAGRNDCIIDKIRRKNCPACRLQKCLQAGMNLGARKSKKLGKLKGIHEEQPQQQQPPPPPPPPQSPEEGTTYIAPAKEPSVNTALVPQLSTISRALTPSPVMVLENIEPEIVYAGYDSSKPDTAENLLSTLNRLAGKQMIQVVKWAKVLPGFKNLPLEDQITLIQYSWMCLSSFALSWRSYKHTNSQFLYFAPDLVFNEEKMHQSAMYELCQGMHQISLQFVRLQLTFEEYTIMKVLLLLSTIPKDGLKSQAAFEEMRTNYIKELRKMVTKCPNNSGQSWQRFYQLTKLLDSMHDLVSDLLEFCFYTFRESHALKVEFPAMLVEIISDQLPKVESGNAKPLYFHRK
In words: Luciferase reporter assay for MR (HEK293T cells). Type of series: cell-based. The conditions noted are these: 10 μM, 5 nM aldosterone. Here is the method:
Luciferase Reporter Assays for PR, GR, and MR
PC3, HeLa, and HEK293T cells were cultured using 5% CSS RPMI-1640, 5% CSS RPMI-1640 and 10% FBS DMEM media in 96-well plates for 24 h, respectively. For PR induction, PC3 (1 × 10^4 cells/well) were transfected with 50 ng pcDNA3-PRB (#89130, Addgene), 24 ng pGL4.36[luc2P MMTV Hygro] (Promega) and 5 ng Renilla using HG-TransGeneTM transfection reagent (#TG-10012, Genomeditech) for 4 h. For GR induction, Hela (1 × 10^4 cells/well) were transfected with 71 ng pCMV -GR11 (#89105, Addgene), 24 ng pGL4.36[luc2P MMTV Hygro] (Promega) and 5 ng Renilla using lip3000 transfection reagent (#L3000075, Thermofisher) for 24 h. For MR induction, HEK293T (1 × 10^4 cells/well) were transfected with 71 ng pCMV-MR gifted by Liu et al. 28, 24 ng of pGL4.36[luc2P MMTV Hygro] (Promega) and 5 ng Renilla using lip3000 transfec tion reagent for 24 h. For the antagonistic models, 10 nM /well progesterone for PC3 cells , 1 nM/well dexamethasone for HeLa, and 5 nM/well aldosterone for HEK293T cells were added to stimulate the cells. Meanwhile, each cell line was treated with a series concentration of compounds (0.4, 2, and 10 μM). For the agonistic models, the cells were directly treated with the compounds without any hormones. Endogenous hormones progesterone, dexamethasone, and aldosterone were considered as agonists for PR, GR, and MR, respectively. The luciferase activities were assessed using the Dual-Glo Luciferase system (#E1910, Promega). […]

Two molecules from publication PMC10141604, “Small-Molecule Inhibition of Androgen Receptor Dimerization as a Strategy against Prostate Cancer” (ACS Central Science, 2023) can be followed below.

Turning to `CC(=O)Cc1nsc(NC(=O)c2cc(-c3cccc(C(F)(F)F)c3)oc2C)n1` [Compound M17-B15], the “cytotoxicity against NIH-3T3” value in the series with NIH-3T3 is listed as “negligible cytotoxicity”. Also, in series [1], the “mRNA expression of PSA” value is on record as “inhibited”; the “mRNA expressions of CDC20, CENPF and MKI67” value was “significantly reduces”. For the same molecule, in series [2], the “inhibition of the secretion of PSA” value is on record as “dose-dependent” and the 50% inhibitory concentration (IC50) came to 350 nM. For the same molecule, in series [3], the “cell viability inhibition of various human cancer cell lines” value is recorded as “mild to moderate inhibitory effects”. Also, in the series with LNCaP cells, the “colony formation of LNCaP cells” value is reported as “significant inhibitory activities”. Moreover, at MR, the “MR antagonistic activity” value is reported as “not observed”.

Take `CNC(=O)c1ccc(N2C(=S)N(c3ccc(C#N)c(C(F)(F)F)c3)C(=O)C2(C)C)cc1F` [Enz, enzalutamide, reference compound]: the “cytotoxicity against NIH-3T3” value in the series with NIH-3T3 is “negligible cytotoxicity”. In series [1], the “mRNA expression of PSA” value is “inhibited”; the “mRNA expressions of CDC20, CENPF and MKI67” value is on record as “significantly reduces”. For the same molecule, the 50% inhibitory concentration (IC50) in series [2] turned out to be 180 nM. In addition, in series [3], the “cell viability inhibition of various human cancer cell lines” value is recorded as “mild to moderate inhibitory effects”. Moreover, the “colony formation of LNCaP cells” value with LNCaP cells is listed as “significant inhibitory activities”. Besides, the “MR antagonistic activity” value on MR is given as “not observed”.
